Measured values as given in ChEMBL document CHEMBL1201862, “PubChem BioAssay data set” (2004).
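The compound was tested at five concentrations on cells cultured in 96-well plates, with a 48-hour exposure period. GI50 is the concentration that inhibits growth by half.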 Calls of active or inactive are those of the source. Cut-off read from the data, not from the text of the source: active = GI50 up to about 1.1 µM and inactive = higher.

Assays:
Experiment in all cases: NCI tumour cell line growth inhibition, 48 h
T47D = test system: T47D
Malme-3M = test system: Malme-3M
NCI-H226 = test system: NCI-H226
OVCAR-4 = test system: OVCAR-4
CAKI-1 = test system: CAKI-1
NCI-H522 = test system: NCI-H522
A498 = test system: A498
RXF 393 = test system: RXF 393
NCI-H460 = test system: NCI-H460
EKVX = test system: EKVX
HCT-15 = test system: HCT-15
A549 = test system: A549
HL-60 = test system: HL-60
OVCAR-3 = test system: OVCAR-3
UACC-257 = test system: UACC-257
OVCAR-8 = test system: OVCAR-8
MDA-MB-231 = test system: MDA-MB-231
UACC-62 = test system: UACC-62
NCI-H23 = test system: NCI-H23
K562 = test system: K562
PC-3 = test system: PC-3
SF-295 = test system: SF-295
SNB-75 = test system: SNB-75
HOP-62 = test system: HOP-62
SR = test system: SR
RPMI-8226 = test system: RPMI-8226
786-0 = test system: 786-0
COLO 205 = test system: COLO 205
Hs-578T = test system: Hs-578T
MCF7 = test system: MCF7
DU-145 = test system: DU-145
HOP-92 = test system: HOP-92
SK-MEL-5 = test system: SK-MEL-5
OVCAR-5 = test system: OVCAR-5
ACHN = test system: ACHN
SN12C = test system: SN12C
SF-268 = test system: SF-268
MOLT-4 = test system: MOLT-4
SK-MEL-28 = test system: SK-MEL-28
SK-OV-3 = test system: SK-OV-3
UO-31 = test system: UO-31
IGROV-1 = test system: IGROV-1
HT-29 = test system: HT-29
HCT-116 = test system: HCT-116
HCC 2998 = test system: HCC 2998
SNB-19 = test system: SNB-19
TK-10 = test system: TK-10
KM12 = test system: KM12
SF-539 = test system: SF-539
M14 = test system: M14
SW-620 = test system: SW-620
LOX IMVI = test system: LOX IMVI
MDA-N = test system: MDA-N
CCRF-CEM = test system: CCRF-CEM
MDA-MB-435 = test system: MDA-MB-435
NCI/ADR-RES = test system: NCI/ADR-RES
U-251 = test system: U-251
SK-MEL-2 = test system: SK-MEL-2

## O=C1c2ccccc2C2=Cc3ccccc3C(O)N12 (stereo unspecified)
T47D
  GI50: 70.5 µM (inactive)
Malme-3M
  GI50: > 100 µM (inactive)
NCI-H226
  GI50: > 100 µM (inactive)
OVCAR-4
  GI50: > 100 µM (inactive)
CAKI-1
  GI50: 22.7 µM (inactive)
NCI-H522
  GI50: 21.7 µM (inactive)
A498
  GI50: > 100 µM (inactive)
RXF 393
  GI50: 26.2 µM (inactive)
NCI-H460
  GI50: > 100 µM (inactive)
EKVX
  GI50: > 100 µM (inactive)
HCT-15
  GI50: > 100 µM
A549
  GI50: > 100 µM (inactive)
HL-60
  GI50: 26.2 µM (inactive)
OVCAR-3
  GI50: > 100 µM (inactive)
UACC-257
  GI50: > 100 µM (inactive)
OVCAR-8
  GI50: > 100 µM (inactive)
MDA-MB-231
  GI50: > 100 µM (inactive)
UACC-62
  GI50: 24.9 µM (inactive)
NCI-H23
  GI50: > 100 µM (inactive)
K562
  GI50: 36.1 µM (inactive)
PC-3
  GI50: > 100 µM (inactive)
SF-295
  GI50: > 100 µM (inactive)
SNB-75
  GI50: 92.5 µM (inactive)
HOP-62
  GI50: > 100 µM (inactive)
SR
  GI50: 25.8 µM (inactive)
RPMI-8226
  GI50: 55.3 µM (inactive)
786-0
  GI50: > 100 µM (inactive)
COLO 205
  GI50: > 100 µM (inactive)
Hs-578T
  GI50: 68.4 µM (inactive)
MCF7
  GI50: > 100 µM (inactive)
DU-145
  GI50: > 100 µM (inactive)
HOP-92
  GI50: 41.3 µM (inactive)
SK-MEL-5
  GI50: > 100 µM (inactive)
OVCAR-5
  GI50: > 100 µM (inactive)
ACHN
  GI50: > 100 µM (inactive)
SN12C
  GI50: > 100 µM (inactive)
SF-268
  GI50: > 100 µM (inactive)
MOLT-4
  GI50: 34 µM (inactive)
SK-MEL-28
  GI50: 37.1 µM (inactive)
SK-OV-3
  GI50: > 100 µM (inactive)
UO-31
  GI50: 18.1 µM (inactive)
IGROV-1
  GI50: > 100 µM (inactive)
HT-29
  GI50: > 100 µM (inactive)
HCT-116
  GI50: > 100 µM (inactive)
HCC 2998
  GI50: > 100 µM (inactive)
SNB-19
  GI50: > 100 µM (inactive)
TK-10
  GI50: > 100 µM (inactive)
KM12
  GI50: > 100 µM (inactive)
SF-539
  GI50: > 100 µM (inactive)
M14
  GI50: > 100 µM (inactive)
SW-620
  GI50: > 100 µM (inactive)
LOX IMVI
  GI50: 38.6 µM (inactive)
MDA-N
  GI50: > 100 µM (inactive)
CCRF-CEM
  GI50: 36.5 µM (inactive)
MDA-MB-435
  GI50: > 100 µM (inactive)
NCI/ADR-RES
  GI50: > 100 µM (inactive)
U-251
  GI50: > 100 µM (inactive)
SK-MEL-2
  GI50: > 100 µM (inactive)

## CC(=O)c1sc2c(c1OC(=O)c1ccc(Cl)cc1Cl)c(=O)n(-c1ccccc1)c(=S)n2-c1ccccc1
T47D
  GI50: 9.27 µM (inactive)
Malme-3M
  GI50: 0.252 µM (active)
NCI-H226
  GI50: 0.258 µM (active)
OVCAR-4
  GI50: 13.2 µM (inactive)
CAKI-1
  GI50: 1.43 µM (inactive)
NCI-H522
  GI50: 1.2 µM (inactive)
A498
  GI50: 0.286 µM (active)
RXF 393
  GI50: 0.382 µM (active)
NCI-H460
  GI50: 1.99 µM (inactive)
EKVX
  GI50: 6.55 µM (inactive)
HCT-15
  GI50: 2.18 µM
A549
  GI50: 9.98 µM (inactive)
HL-60
  GI50: 3.81 µM (inactive)
OVCAR-3
  GI50: 4.14 µM (inactive)
UACC-257
  GI50: 3.88 µM (inactive)
OVCAR-8
  GI50: 0.418 µM (active)
MDA-MB-231
  GI50: 0.861 µM (active)
UACC-62
  GI50: 10.8 µM (inactive)
NCI-H23
  GI50: 5.83 µM (inactive)
K562
  GI50: 4.32 µM (inactive)
PC-3
  GI50: 0.608 µM (active)
SF-295
  GI50: 0.267 µM (active)
SNB-75
  GI50: 0.472 µM (active)
HOP-62
  GI50: 1.41 µM (inactive)
SR
  GI50: 0.501 µM (active)
RPMI-8226
  GI50: 0.213 µM (active)
786-0
  GI50: 0.47 µM (active)
COLO 205
  GI50: 1.07 µM (active)
Hs-578T
  GI50: 0.1 µM (active)
MCF7
  GI50: 8.55 µM (inactive)
DU-145
  GI50: 21.7 µM (inactive)
HOP-92
  GI50: 0.78 µM (active)
SK-MEL-5
  GI50: 1.8 µM (inactive)
OVCAR-5
  GI50: 0.64 µM (active)
ACHN
  GI50: 0.321 µM (active)
SN12C
  GI50: 0.369 µM (active)
SF-268
  GI50: 0.552 µM (active)
MOLT-4
  GI50: 0.14 µM (active)
SK-MEL-28
  GI50: 0.475 µM (active)
SK-OV-3
  GI50: 0.3 µM (active)
UO-31
  GI50: 0.347 µM (active)
IGROV-1
  GI50: 5.51 µM (inactive)
HT-29
  GI50: 0.28 µM (active)
HCT-116
  GI50: 2.96 µM (inactive)
HCC 2998
  GI50: 6.37 µM (inactive)
SNB-19
  GI50: 0.673 µM (active)
TK-10
  GI50: 4.57 µM (inactive)
KM12
  GI50: 4.14 µM (inactive)
SF-539
  GI50: 0.251 µM (active)
M14
  GI50: 0.303 µM (active)
SW-620
  GI50: 3.97 µM (inactive)
LOX IMVI
  GI50: 0.321 µM (active)
MDA-N
  GI50: 0.741 µM (active)
CCRF-CEM
  GI50: 0.26 µM (active)
MDA-MB-435
  GI50: 1 µM (active)
NCI/ADR-RES
  GI50: 1.05 µM (active)
U-251
  GI50: 0.342 µM (active)
SK-MEL-2
  GI50: 0.264 µM (active)
